Results from patent US7879887B2, “α-amino acid derivatives and medicaments containing the same as an active ingredient” (Nissan Chemical Industries, Ltd., priority 2006, dated 2011).

Experiments:
Aurora A = biological target: T1, Aurora A (Homo sapiens, UniProt O14965); assay: In vitro kinase assay, Aurora A; type: biochemical; conditions: recombinant protein (Upstate)
T1 construct: purchased Upstate Inc. 14-511
T1 sequence (O14965 1-403): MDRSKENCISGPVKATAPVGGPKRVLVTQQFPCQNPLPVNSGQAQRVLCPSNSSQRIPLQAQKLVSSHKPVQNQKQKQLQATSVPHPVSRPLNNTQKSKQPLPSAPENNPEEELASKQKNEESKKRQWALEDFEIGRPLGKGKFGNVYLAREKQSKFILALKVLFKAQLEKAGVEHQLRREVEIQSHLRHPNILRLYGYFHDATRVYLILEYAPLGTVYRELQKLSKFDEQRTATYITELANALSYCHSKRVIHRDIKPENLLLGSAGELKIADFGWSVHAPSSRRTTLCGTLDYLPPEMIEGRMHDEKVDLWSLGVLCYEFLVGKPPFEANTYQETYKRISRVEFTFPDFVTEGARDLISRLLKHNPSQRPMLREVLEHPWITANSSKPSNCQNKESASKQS
Outline: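 Recombinant human enzymes assayed per supplier protocol. IC50 derived with compound-free wells set as 0% inhibition and compound- and enzyme-free wells as 100% inhibition.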

CDK1/Cyclin B complex = biological target: T2, CDK1/Cyclin B complex (Homo sapiens, UniProt P06493); assay: In vitro kinase assay, CDK1/Cyclin B complex; type: biochemical; conditions: recombinant protein (Upstate)
T2 construct: purchased Upstate Inc. 14-450
T2 sequence (P06493 whole entry): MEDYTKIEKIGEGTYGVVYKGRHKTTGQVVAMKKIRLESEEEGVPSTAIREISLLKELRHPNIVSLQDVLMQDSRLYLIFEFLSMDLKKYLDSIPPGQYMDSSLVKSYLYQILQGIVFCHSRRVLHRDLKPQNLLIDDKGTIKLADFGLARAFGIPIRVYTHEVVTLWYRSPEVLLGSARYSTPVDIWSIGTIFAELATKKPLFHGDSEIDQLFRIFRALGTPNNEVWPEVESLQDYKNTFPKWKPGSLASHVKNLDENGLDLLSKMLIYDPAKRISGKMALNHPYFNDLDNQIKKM
T2 sequence (P14635 whole entry partner): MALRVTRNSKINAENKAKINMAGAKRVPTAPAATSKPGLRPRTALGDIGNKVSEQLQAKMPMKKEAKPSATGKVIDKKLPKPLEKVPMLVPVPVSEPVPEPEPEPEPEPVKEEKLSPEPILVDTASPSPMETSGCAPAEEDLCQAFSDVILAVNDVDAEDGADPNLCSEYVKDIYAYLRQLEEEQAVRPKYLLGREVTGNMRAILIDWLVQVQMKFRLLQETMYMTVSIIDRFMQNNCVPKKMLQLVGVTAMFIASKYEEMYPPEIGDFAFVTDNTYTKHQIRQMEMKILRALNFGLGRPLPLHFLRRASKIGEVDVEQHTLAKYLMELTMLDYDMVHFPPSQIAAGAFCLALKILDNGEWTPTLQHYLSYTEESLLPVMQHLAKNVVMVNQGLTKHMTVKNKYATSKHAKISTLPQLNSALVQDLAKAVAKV
Description: Inhibitory activity against Aurora A, CDK1/Cyclin B complex, CDK2/Cyclin E complex and CDK3/Cyclin E complex were measured by in vitro kinase assay using recombinant proteins. The assays were carried out by using recombinant proteins (Upstate Inc.) for Aurora A, CDK1/Cyclin B complex, CDK2/Cyclin E complex and CDK3/Cyclin E complex (respective cat. nos. 14-511, 14-450, 14-448 and 14-487), in accordance with the procedure described in the product instructions thereof. The 50% inhibitory concentrations (IC50 values) were calculated by assigning measured values in the case of not containing a test compound to an inhibition of 0%, and assigning measured values in the case of not containing a test compound and enzyme to an inhibition of 100%.

CDK2/Cyclin E complex = CDK2/Cyclin E complex (Homo sapiens, UniProt P24941); assay: In vitro kinase assay, CDK2/Cyclin E complex; type: biochemical; conditions: recombinant protein (Upstate); read-out: CDK2/cyclinE IC50
Description: (§1) Inhibitory activity against Aurora A, CDK1/Cyclin B complex, CDK2/Cyclin E complex and CDK3/Cyclin E complex were measured by in vitro kinase assay using recombinant proteins.

CDK3/Cyclin E complex = biological target: T3, CDK3/Cyclin E complex (Homo sapiens, UniProt Q00526); assay: In vitro kinase assay, CDK3/Cyclin E complex; type: biochemical; conditions: recombinant protein (Upstate); read-out: CDK3/cyclinE IC50
T3 construct: purchased Upstate Inc. 14-487
T3 sequence (Q00526 whole entry): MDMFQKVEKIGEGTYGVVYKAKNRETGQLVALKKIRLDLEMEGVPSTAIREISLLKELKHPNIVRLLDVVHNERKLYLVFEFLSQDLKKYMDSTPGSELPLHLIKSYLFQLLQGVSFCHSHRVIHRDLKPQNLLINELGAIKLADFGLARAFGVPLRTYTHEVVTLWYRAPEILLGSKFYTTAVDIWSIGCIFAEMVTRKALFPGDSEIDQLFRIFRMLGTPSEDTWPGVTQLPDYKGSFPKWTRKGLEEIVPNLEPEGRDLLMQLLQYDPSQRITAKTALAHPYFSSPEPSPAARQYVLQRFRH
T3 sequence (P24864 whole entry partner): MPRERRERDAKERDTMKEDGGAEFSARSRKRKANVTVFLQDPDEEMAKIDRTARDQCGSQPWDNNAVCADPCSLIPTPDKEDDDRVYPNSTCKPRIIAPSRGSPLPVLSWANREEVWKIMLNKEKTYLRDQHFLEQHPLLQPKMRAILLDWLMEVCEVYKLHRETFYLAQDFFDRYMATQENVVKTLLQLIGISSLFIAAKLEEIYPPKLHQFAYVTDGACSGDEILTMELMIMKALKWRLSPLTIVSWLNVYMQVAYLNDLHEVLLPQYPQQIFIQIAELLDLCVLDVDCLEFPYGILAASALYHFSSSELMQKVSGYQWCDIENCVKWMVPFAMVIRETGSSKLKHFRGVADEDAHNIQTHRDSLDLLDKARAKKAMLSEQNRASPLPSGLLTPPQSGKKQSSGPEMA
Description: as §1

[1] = system: colon carcinoma cell line SW620; assay: Cell proliferation inhibitory activity, SW620; type: cell-based, human; conditions: Homo sapiens, SW-620, 96 h, cells counted 4 days later with Cell Counting Kit-8
Outline: (§2)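 Cells were exposed to serial concentrations of test substance at 37° C in 5% CO2 for 4 days, then counted with Cell Counting Kit-8. IC50 was derived with substance-free wells set as 0% inhibition and wells lacking both substance and cells as 100%.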

[2] = system: pancreatic cancer cell line MIAPaCa-2; assay: Cell proliferation inhibitory activity, MIAPaCa-2; type: cell-based; conditions: Homo sapiens, MIA PaCa-2, 96 h; cells counted 4 days later, Cell Counting Kit-8
Description: (§3) Evaluations were carried out using colon carcinoma cell line SW620 (Cat. No. CCL-227), lung carcinoma cell line NCI-H460 (Cat. No. HTB-177), prostate cancer cell line DU 145 (Cat. No. HTB-81), breast cancer cell line MDA-MB-231 (Cat. No. HTB26) and leukemia cell line KG-1a (Cat. No. CCL-246.1) purchased from ATCC, pancreatic cancer cell line MIAPaCa-2 (Cat. No. CRL-1420) purchased from Dainippon Pharmaceutical, and ovarian cancer cell line IGROV1 received from the Netherland Cancer Institute. The cells were cultured under the conditions recommended by the supplier for each cell line, or with respect to IGROV1, according to the method described in Cancer Res. 59: 4559-4563, 1999. Cells suspended in media were added to solutions containing the test substances at various concentrations followed by culturing in a 5% CO2 incubator at 37° C. The numbers of cells were counted 4 days later with the Cell Counting Kit-8. IC50 values were calculated by assigning measured values in the case of not containing a test substance to an inhibition of 0%, and assigning measured values in the case of not containing a test substance or cells to an inhibition of 100%.

[3] = system: prostate cancer cell line DU 145; assay: Cell proliferation inhibitory activity, DU 145; type: cell-based, human; conditions: Homo sapiens, 96 h, cells counted 4 days later with Cell Counting Kit-8
Outline: as §2

[4] = system: lung carcinoma cell line NCI-H460; assay: Cell proliferation inhibitory activity, NCI-H460; type: cell-based; conditions: Homo sapiens, 96 h, cells counted 4 days later with Cell Counting Kit-8
Description: as §3

[5] = system: breast cancer cell line MDA-MB-231; assay: Cell proliferation inhibitory activity, MDA-MB-231; type: cell-based; conditions: Homo sapiens, 96 h, cells counted 4 days later with Cell Counting Kit-8
Description: as §3

[6] = system: ovarian cancer cell line IGROV1; assay: Cell proliferation inhibitory activity, IGROV1; type: cell-based; conditions: Homo sapiens, IGROV-1, 96 h, cells counted 4 days later with Cell Counting Kit-8
Description: as §3

leukemia cell line KG-1a = assay: Cell proliferation inhibitory activity, KG-1a; type: cell-based; conditions: Homo sapiens, 96 h, cells counted 4 days later with Cell Counting Kit-8
Outline: as §2

recombinant human βARK1 = biological target: T4, recombinant human βARK1 (Homo sapiens, UniProt P25098); assay: Inhibitory activity against βARK1 (33P phosphorylation of synthetic peptide); type: biochemical; conditions: recombinant human βARK1, 60 minutes at room temperature
T4 construct: made in house; host or cells: Sf-9 insect cells (baculovirus, pBacPAK8)
T4 sequence (P25098 1-689): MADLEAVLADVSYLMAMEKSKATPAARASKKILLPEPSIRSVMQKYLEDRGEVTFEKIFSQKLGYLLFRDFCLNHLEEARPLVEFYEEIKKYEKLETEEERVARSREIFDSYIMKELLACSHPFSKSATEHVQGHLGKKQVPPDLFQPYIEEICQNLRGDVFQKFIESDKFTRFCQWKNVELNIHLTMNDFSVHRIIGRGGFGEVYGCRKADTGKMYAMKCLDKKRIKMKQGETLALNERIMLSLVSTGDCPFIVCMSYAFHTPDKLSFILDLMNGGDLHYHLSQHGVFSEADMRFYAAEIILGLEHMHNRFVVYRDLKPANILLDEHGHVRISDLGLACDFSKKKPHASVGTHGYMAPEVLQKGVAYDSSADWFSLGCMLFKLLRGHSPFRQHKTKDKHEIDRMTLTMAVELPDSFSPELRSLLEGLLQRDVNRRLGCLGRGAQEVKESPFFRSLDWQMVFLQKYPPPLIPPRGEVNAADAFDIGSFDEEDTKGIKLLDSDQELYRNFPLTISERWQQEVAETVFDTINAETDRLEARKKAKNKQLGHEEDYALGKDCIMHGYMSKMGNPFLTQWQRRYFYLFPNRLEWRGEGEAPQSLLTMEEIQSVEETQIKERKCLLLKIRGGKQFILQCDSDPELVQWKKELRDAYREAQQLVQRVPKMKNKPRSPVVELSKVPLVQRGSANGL
Description: Human βARK1 was amplified by PCR based on the base sequence of human βARK1 mRNA registered in GenBank (Accession No. M80776) using a human leukocyte cDNA library (Gibco BRL Cat. No. 10421-022) as a template. The amplified cDNA fragment was inserted into a pBacPAK8 vector (Clontech) to construct a plasmid.
Recombinant human βARK1 was expressed using the BacPAK Baculovirus Expression System (Clontech, Cat. No. K1601-1). 1×10^6 Sf-9 cells were adhered to a 35 mm dish in 2.5 mL of TMN-FH Insect Medium containing 10 vol % FBS (Pharminogen, Cat. No. PM-21227M) and cultured overnight at 27° C. On the following day, the medium was removed and 500 ng of the above plasmid, BacPAK6 viral DNA cleaved with Bsu36I (5 μL) and 1.5 mL of the same medium mixed with 4 μL of Bacfectin were added followed by culturing for 5 hours, further adding 1.5 mL of medium and subsequently culturing for 5 days. […] The culture supernatant after 5 days was recovered and a plaque assay was carried out to isolate single plaques. These were then infected into Sf-9 cells and the resulting culture supernatant was designated as Passage 1 (1−3×10^11 pfu/mL). Passage 1 was added to 3×10^7 Sf-9 cells to a multiplicity of infection (MOI) of 0.1 (pfu/cell), suspension culturing was carried out for 5 days using a spinner flask, and the resulting culture supernatant was designated as Passage 2 (4×10^10 pfu/mL) and used as a viral liquid for large-volume expression.
Sf-9 cells at 3×10^9 cells/200 mL were infected by adding Passage 2 to an MOI of 100 followed by addition of medium to bring to a liquid volume of 2 L and further culturing for 3 days. After recovering the cells by centrifugation and washing three times with PBS, the cells were suspended in 100 mL of Lysis Buffer (20 mmol/L HEPES-HCl (pH 7.2), 5 mmol/L EDTA, 3 mmol/L phenylmethylsulfonyl fluoride (PMSF)). After lysing the cells by ultrasonic treatment at low temperature, the supernatant was recovered by centrifuging (45,000×g, 15 minutes) (sup1). NaCl was added to the resulting supernatant to a final concentration of 250 mmol/L followed by ultracentrifugation (300,000×g, 60 minutes) and using the subsequent supernatant as a crude cell extract (sup2).
Purification was carried out with reference to the literature (Benovic, J. L., Methods Enzymol. 1991; 200: 351-362; Kim, C. M. et al., Receptor 1993; 3: 39-55; Sohlemann, P. et al., FEBS Letters 1993; 324: 59-62). The crude cell extract was accurately brought to a volume of 400 mL with Buffer C (20 mmol/L HEPES-HCl (pH 7.2), 5 mmol/L EDTA, 0.02 vol % Triton X-100) followed by loading onto a 50 mL SP-Sepharose FF (Amersham Pharmacia Biotech) column equilibrated with Buffer C. […] ETA was carried out on each fraction using anti-GRK2 antibody (Santa-Cruz Cat. No. SC-562) and the positive fractions were collected (GRK2=βARK1). This was then diluted three-fold with Buffer C and loaded on a 5 mL HiTrap Heparin column (Amersham Pharmacia Biotech) column equilibrated with Buffer C. After washing the column with Wash Buffer (100 mmol/L NaCl, Buffer C), the column was eluted with an NaCl concentration gradient (100 to 600 mmol/L NaCl for 100 minutes, flow rate: 1 mL/min). The positive fractions as determined by ETA were collected and stored in a freezer at −80° C.
A synthetic peptide having an amino acid sequence of biotinated-[…] was used in accordance with a previous report (Chen, C. Y. et al., J. Biol. Chem. 1993; 268: 7825-7831). This synthetic peptide can also be synthesized with reference to known synthesis methods (for example, Chen, C. Y. et al., J. Biol. Chem. 1993; 268: 7825-7831, Biochemistry 1991; 30: 5118-5125). 2 μl of a DMSO solution in which the test compound was diluted to as to be […] the final concentration was dispensed into a 96-well plate (round bottom) (Falcon 351190) (final concentration: 4 vol % DMSO). […]

| SMILES | IC50 (Aurora A) | IC50 (CDK1/Cyclin B complex) | IC50 (CDK2/Cyclin E complex) | IC50 (CDK3/Cyclin E complex) | IC50 [1] | IC50 [2] | IC50 [3] | IC50 [4] | IC50 [5] | IC50 [6] | IC50 (leukemia cell line KG-1a) | IC50 (recombinant human βARK1) |
| --- | --- | --- | --- | --- | --- | --- | --- | --- | --- | --- | --- | --- |
| CC(Nc1cccc(O)c1)C(=O)Nc1nc2ccc3[nH]ncc3c2s1 (stereo not shown) [compound 23] | 47 nM | 150 nM | 30 nM | 47 nM | 500 nM | 3.5 µM | 1600 nM | 1400 nM | 1600 nM | 1.3 µM | < 100 nM | – |
| CC(Nc1ccc(Cl)cc1)C(=O)Nc1nc2ccc3[nH]ncc3c2s1 (stereo not shown) [compound 24] | – | – | 50 nM | 75 nM | 900 nM | 4.8 µM | 3200 nM | – | 3800 nM | 4.6 µM | < 100 nM | 8 nM |
| CCC(=O)Nc1cc(NC(C)(C)C(=O)Nc2nc3c(C(F)(F)F)cc4[nH]ncc4c3s2)ccc1F [compound 76] | – | – | 294 nM | 124 nM | 900 nM | 4.9 µM | 1800 nM | 1500 nM | 4600 nM | 2.7 µM | 300 nM | 9.3 nM |
| CC(C)(Nc1ccc(Cl)c(C(=O)NOCc2ccccc2)c1)C(=O)Nc1nc2c(C(F)(F)F)cc3[nH]ncc3c2s1 [compound 98] | 65 nM | – | – | 128 nM | 500 nM | 4 µM | 4400 nM | 1800 nM | 2600 nM | – | – | – |
| CC(C)(Nc1ccc(Cl)c(OCC(O)CO)c1)C(=O)Nc1nc2c(C(F)(F)F)cc3[nH]ncc3c2s1 (stereo not shown) [compound 99] | 142 nM | 140 nM | 20 nM | 8.7 nM | 700 nM | 4.5 µM | 1700 nM | 4100 nM | 3000 nM | 4.4 µM | 300 nM | – |
| Cc1cc2[nH]ncc2c2sc(NC(=O)C3(Nc4ccc(Cl)cc4)CC3)nc12 [compound 127] | – | – | 128 nM | 185 nM | 700 nM | – | 3000 nM | 3100 nM | 4300 nM | 4.9 µM | < 100 nM | 6.2 nM |
| CNC(=O)c1cc(NC(C)(C)C(=O)Nc2nc3c(C(F)(F)F)cc4[nH]ncc4c3s2)ccc1F [compound 137] | – | 39 nM | 40 nM | 12 nM | 200 nM | 3.1 µM | 400 nM | 400 nM | 1900 nM | 3 µM | < 100 nM | – |
| CC(C)(Nc1ccc(F)c(C(N)=O)c1)C(=O)Nc1nc2c(C(F)(F)F)cc3[nH]ncc3c2s1 [compound 138] | 263 nM | 53 nM | 37 nM | 12 nM | 2100 nM | 4.3 µM | 2300 nM | 1600 nM | – | 4.5 µM | – | – |
